Measured values published in patent publication US12616716B2, “Wound healing dressings and formulations and methods of use thereof” (Polaroid IP B.V., priority 2023, dated 2026).
In brackets after ≈: the same amount, converted by molar mass.

How the values were obtained:
[1] = test system: Staphylococcus aureus ATCC 29213; experiment: MBC, spot plating after 24 h in MH broth; settings: A = Staphylococcus aureus 29213
Procedure: (§5) To determine MBC compound concentrations breakpoints were estimated from MIC curves. Overnight cultures were set up as described above for all bacterial strains. The following day overnight cultures were adjusted to give a cell density of 5×10^5 cells per mL. Briefly, cultures were adjusted to the McFarland standard (0.08-0.12) and diluted (1:150). Adjusted cultures were inoculated into 96 well plates with 50 μL sterile Muller-Hinton broth (MHB) and 2 concentrations of each compound. […] MBC cultures were quantified by serial dilution in a 96 well plate and spot plating onto Muller-Hinton agar (MHA). MHA plates were incubated at 37° C. for 24 h and counted. Results are presented as CFU per mL.
(§6) To determine MBC compound concentrations, breakpoints were estimated from MIC curves. Overnight cultures were set up as described above for all bacterial strains. The following day overnight cultures were adjusted to give a cell density of 5×10^5 cells per mL. Briefly, cultures were adjusted to the McFarland standard (0.08-0.12) and diluted (1:150). Adjusted cultures were inoculated into 96 well plates with 50 μL sterile Muller-Hinton broth (MHB) and 2 concentrations of each compound. […] MBC cultures were quantified by serial dilution in a 96 well plate and spot plating onto Muller-Hinton agar (MHA). MHA plates were incubated at 37° C. for 24 hours and counted.
(§7) These compounds were tested for their MBC against a panel of ATCC and nosocomial bacteria.

[2] = test system: Staphylococcus aureus MR1; experiment: MBC, spot plating after 24 h in MH broth; settings: B = Staphylococcus aureus MR1
Procedure: as §5, §6, §7

[3] = test system: Staphylococcus aureus NRS384; experiment: MBC, spot plating after 24 h in MH broth; settings: C = Staphylococcus aureus NRS384
Procedure: as §5
(§8) To determine MBC compound concentrations, breakpoints were estimated from MIC curves. Overnight cultures were set up as described above for all bacterial strains. The following day overnight cultures were adjusted to give a cell density of 5×10^5 cells per mL. Briefly, cultures were adjusted to the McFarland standard (0.08-0.12) and diluted (1:150). Adjusted cultures were inoculated into 96 well plates with 50 μL sterile Muller-Hinton broth (MHB) and 2 concentrations of each compound. […] MBC cultures were quantified by serial dilution in a 96 well plate and spot plating onto Muller-Hinton agar (MHA). MHA plates were incubated at 37° C. for 24 hours and counted. […]

[4] = test system: Enterococcus faecalis EF19433; experiment: MBC, spot plating after 24 h in MH broth; settings: E = Enterococcus faecalis EF19433
Procedure: as §5, §6, §7

[5] = test system: Enterococcus faecalis EF51299; experiment: MBC, spot plating after 24 h in MH broth; settings: D = Enterococcus faecalis EF51299
Procedure: as §5, §8

[6] = test system: Klebsiella pneumoniae KL1; experiment: MBC, spot plating after 24 h in MH broth; settings: F = Klebisella pneumoniae KL1
Procedure: as §5, §8

[7] = test system: Pseudomonas aeruginosa 27853; experiment: MBC, spot plating after 24 h in MH broth; settings: G = Pseudomonas aeruginosa 27853
Procedure: as §5, §8

[8] = test system: Escherichia coli EC25922; experiment: MBC, spot plating after 24 h in MH broth; settings: H = Escherichia coli EC25922
Procedure: as §5, §6, §7

[9] = test system: Staphylococcus aureus ATCC 29213; experiment: MIC, broth microdilution in MH broth with resazurin; assay type: cell-based; settings: Staphylococcus aureus, ATCC29213, read-out: MIC Concentration
[10] = test system: Staphylococcus aureus MR1; experiment: as above; assay type: cell-based; settings: Staphylococcus aureus, MR1, read-out: MIC Concentration
[11] = test system: Staphylococcus aureus NRS384; experiment: as above; assay type: cell-based; settings: Staphylococcus aureus, NRS384, read-out: MIC Concentration
[12] = test system: Enterococcus faecalis EF19433; experiment: as above; assay type: cell-based; settings: Enterococcus faecalis, EF19433, read-out: MIC Concentration
[13] = test system: Klebsiella pneumoniae KL1; experiment: as above; assay type: cell-based; settings: Klebsiella pneumoniae, KL1, read-out: MIC Concentration
[14] = test system: Pseudomonas aeruginosa 27853; experiment: as above; assay type: cell-based; settings: Pseudomonas aeruginosa, 27853, read-out: MIC Concentration
[15] = test system: Escherichia coli EC25922; experiment: as above; assay type: cell-based; settings: Escherichia coli, EC25922, read-out: MIC Concentration
[16] = test system: Staphylococcus aureus NRS384; experiment: Murine wound infection model, in vivo antimicrobial efficacy (bacterial CFU/wound); settings: Study 2 pilot; daily application; 24 hrs and 72 hrs post-seeding
[17] = test system: S. aureus NRS 384; experiment: Mouse Staphylococcus aureus-induced wound infection model, bacteria load in wound site; settings: for Ig(CFU/wound site) 12 h p.i. / ΔIg(CFU/wound site) vs 12 h infection control / Ig(CFU/wound site) 24 h p.i. / ΔIg(CFU/wound site) vs 24 h infection control / Ig (CFU/wound site) / ΔIg(CFU/wound site) vs infection control: twice a day
[18] = test system: Acinetobacter baumannii; experiment: MIC, CLSI broth microdilution in CAMHB; assay type: cell-based; settings: NCTC13304, A. baumannii (NCTC 13304)
Procedure: (§1) The bacterial strains tested included CLSI and NCTC reference and quality control (QC) strains from the following organism groups: Acinetobacter baumannii, Enterococcus faecalis, Escherichia coli, Klebsiella pneumoniae, Pseudomonas aeruginosa, and Staphylococcus aureus. Some strains contained molecularly characterized β-lactamase genes including carbapenemase (KPC-2) and extended-spectrum β-lactamase (SHV-18) genes.
(§2) Isolates were tested for antimicrobial susceptibility using broth microdilution methodology according to CLSI M07 (2018) and M100 (2023) guidelines. Frozen-form, 96-well MIC panels were produced. The testing medium was cation-adjusted Mueller-Hinton broth (CAMHB). Single MIC values were measured for 8 test compounds against each of the 9 strains tested. Additional MIC values were generated for levofloxacin (comparator agent) against several of the QC strains.
(§3) Compound stock solutions were prepared and allowed to mix overnight as needed. The pH of each stock solution was checked and adjusted as necessary until a minimum pH of 5.0 was achieved (pH range 5.0-7.0). Some compound stock solutions also required the addition of heat to assist in solubilization.
(§4) Current CLSI quality assurance practices were followed when performing the broth microdilution susceptibility testing. MIC values were validated by concurrently testing a control agent (levofloxacin) against CLSI-recommended QC strains including S. aureus ATCC 29213 (methicillin susceptible), E. coli ATCC 25922, Enterococcus faecalis ATCC 29212, and P. aeruginosa ATCC 27853. The initial inoculum density (target, 5×10^5 CFU/mL) during susceptibility testing was monitored by bacterial colony counts.

[19] = test system: Enterococcus faecalis; experiment: MIC, CLSI broth microdilution in CAMHB; assay type: cell-based
Procedure: as §1, §2, §3, §4

[20] = test system: Escherichia coli; experiment: MIC, CLSI broth microdilution in CAMHB; assay type: cell-based
Procedure: as §1, §2, §3, §4

[21] = test system: Klebsiella pneumoniae; experiment: MIC, CLSI broth microdilution in CAMHB; assay type: cell-based
Procedure: as §1, §2, §3, §4

[22] = test system: Pseudomonas aeruginosa; experiment: MIC, CLSI broth microdilution in CAMHB; assay type: cell-based; settings: ATCC27853, P. aeruginosa (ATCC 27853)
Procedure: as §1, §2, §3, §4

[23] = test system: Staphylococcus aureus; experiment: MIC, CLSI broth microdilution in CAMHB; assay type: cell-based; settings: ATCC29213, S. aureus (ATCC 29213)
Procedure: as §1, §2, §3, §4

[24] = 1 mg/ml, 10 μL/wound site, 10 μg/wound site, 12 h p.i.
[25] = 1 mg/ml, 10 μL/wound site, 10 μg/wound site, 24 h p.i.
[26] = Study II, 1 mg/ml, 10 μL/wound site
[27] = Study III, 48 h p.i., 1 mg/ml, 10 μL/wound site
[28] = Study III, 72 h p.i., 1 mg/ml, 10 μL/wound site
[29] = Study V, 0.2 mg/ml, 50 μL/wound site, 24 h p.i.
[30] = Study V, 0.2 mg/ml, 50 μL/wound site, 72 h p.i.

CN[C@H](CC(C)C)C(=O)N[C@H]1C(=O)N[C@@H](CC(N)=O)C(=O)N[C@H]2C(=O)N[C@H]3C(=O)N[C@H](C(=O)N[C@H](C(=O)O)c4cc(O)cc(O)c4-c4cc3ccc4O)[C@H](O)c3ccc(c(Cl)c3)Oc3cc2cc(c3O[C@@H]2O[C@H](CO)[C@@H](O)[C@H](O)[C@H]2O[C@H]2C[C@](C)(N)[C@H](O)[C@H](C)O2)Oc2ccc(cc2Cl)[C@H]1O [Van]
MBC Concentration [1]: 0.02 µM (≈ 0.029 µg/mL)
MBC Concentration [2]: 0.02 µM (≈ 0.029 µg/mL)
MBC Concentration [3]: 0.02 µM (≈ 0.029 µg/mL)
MBC Concentration [4]: 0.08 µM (≈ 0.116 µg/mL)
MBC Concentration [5]: 0.04 µM (≈ 0.058 µg/mL)
MBC Concentration [6]: 1.25 µM (≈ 1.81 µg/mL)
MBC Concentration [7]: 2.50 µM (≈ 3.62 µg/mL)
MBC Concentration [8]: 0.31 µM (≈ 0.449 µg/mL)

CN[C@H](CC(C)C)C(=O)N[C@H]1C(=O)N[C@@H](CC(N)=O)C(=O)N[C@H]2C(=O)N[C@H]3C(=O)N[C@H](C(=O)N[C@H](C(=O)O)c4cc(O)cc(O)c4-c4cc3ccc4O)[C@H](O)c3ccc(c(Cl)c3)Oc3cc2cc(c3O[C@@H]2O[C@H](CO)[C@@H](O)[C@H](O)[C@H]2O[C@H]2C[C@](C)(N)[C@H](O)[C@H](C)O2)Oc2ccc(cc2Cl)[C@H]1O [Vancomycin]
MIC [9]: 0.04 µM (≈ 0.058 µg/mL)
MIC [10]: 0.04 µM (≈ 0.058 µg/mL)
MIC [11]: 0.04 µM (≈ 0.058 µg/mL)
MIC [12]: 5 µM (≈ 7.25 µg/mL)
MIC [13]: 0.63 µM (≈ 0.913 µg/mL)
MIC [14]: 5 µM (≈ 7.25 µg/mL)
MIC [15]: 0.63 µM (≈ 0.913 µg/mL)
log reduction in wound S. aureus [16]: 1 log
Ig(CFU/wound site) 12 h p.i. [17, 24]: 8.02 ± 0.35 Ig(CFU/wound site)
ΔIg(CFU/wound site) vs 12 h infection control [17, 24]: −0.57 ± 0.35 Ig(CFU/wound site)
Ig(CFU/wound site) 24 h p.i. [17, 25]: 7.29 ± 0.32 Ig(CFU/wound site)
ΔIg(CFU/wound site) vs 24 h infection control [17, 25]: −1.44 ± 0.32 Ig(CFU/wound site)
Ig(CFU/wound site) 12 h p.i. ([17]; Study I, 10 μL/wound site): 8.47 ± 0.22 Ig(CFU/wound site)
Ig(CFU/wound site) 24 h p.i. ([17]; Study I, 10 μL/wound site): 7.67 ± 0.60 Ig(CFU/wound site)
ΔIg(CFU/wound site) vs 12 h infection control ([17]; Study I, 10 μL/wound site): −0.11 ± 0.22 Ig(CFU/wound site)
ΔIg(CFU/wound site) vs 24 h infection control ([17]; Study I, 10 μL/wound site): −1.12 ± 0.60 Ig(CFU/wound site)
bacterial load decreased by, compared with 24 h infection control group ([17]; Study I, after twice administrations): 1.12 Ig CFU/wound site
effect of a single dose at 12-hour post infection ([17]; Study I, single dose at 10 μg): not manifest
Ig(CFU/wound site) 12 h p.i. [17, 26]: 7.83 ± 0.44 Ig(CFU/wound site)
Ig(CFU/wound site) 24 h p.i. [17, 26]: 7.50 ± 0.54 Ig(CFU/wound site)
ΔIg(CFU/wound site) vs 12 h infection control [17, 26]: −0.76 ± 0.44 Ig(CFU/wound site)
ΔIg(CFU/wound site) vs 24 h infection control [17, 26]: −1.36 ± 0.54 Ig(CFU/wound site)
Ig (CFU/wound site) ([17]; Study III, 24 h p.i., 1 mg/ml, 10 μL/wound site, 10 μg/wound site, inoculum 2.50E+06 CFU/wound site): 7.67 ± 0.24 Ig (CFU/wound site)
ΔIg(CFU/wound site) vs infection control ([17]; Study III, 24 h p.i., 1 mg/ml, 10 μL/wound site): −1.11 ± 0.24 Ig(CFU/wound site)
Ig (CFU/wound site) ([17]; Study III, 24 h p.i., 1 mg/ml, 50 μL/wound site, 50 μg/wound site): 4.37 ± 0.26 Ig (CFU/wound site)
ΔIg(CFU/wound site) vs infection control ([17]; Study III, 24 h p.i., 1 mg/ml, 50 μL/wound site): −4.40 ± 0.26 Ig(CFU/wound site)
Ig (CFU/wound site) [17, 27]: 5.29 ± 0.77 Ig (CFU/wound site)
ΔIg(CFU/wound site) vs infection control [17, 27]: −3.28 ± 0.77 Ig(CFU/wound site)
Ig (CFU/wound site) [17, 28]: 5.12 ± 0.65 Ig (CFU/wound site)
ΔIg(CFU/wound site) vs infection control [17, 28]: −2.83 ± 0.65 Ig(CFU/wound site)
Ig (CFU/wound site) [17, 29]: 6.07 ± 0.52 Ig(CFU/wound site)
ΔIg(CFU/wound site) vs infection control [17, 29]: −2.39 ± 0.52 Ig(CFU/wound site)
Ig (CFU/wound site) [17, 30]: 5.05 ± 0.20 Ig(CFU/wound site)
ΔIg(CFU/wound site) vs infection control [17, 30]: −3.22 ± 0.20 Ig(CFU/wound site)

C[C@H]1COc2c(N3CCN(C)CC3)c(F)cc3c(=O)c(C(=O)O)cn1c23 [levofloxacin]
MIC [18]: 4 µg/mL (≈ 11.1 µM)
MIC ([19]; ATCC29212, E. faecalis (ATCC 29212)): 1 µg/mL (≈ 2.77 µM)
MIC ([19]; ATCC51299, E. faecalis (ATCC 51299)): 0.5 µg/mL (≈ 1.38 µM)
MIC ([20]; ATCC25922, E. coli (ATCC 25922)): 0.015 µg/mL (≈ 0.0415 µM)
MIC ([20]; ATCCBAA2452, E. coli (ATCC BAA-2452)): 0.03 µg/mL (≈ 0.083 µM)
MIC ([21]; ATCC700603, K. pneumoniae (ATCC 700603)): 0.5 µg/mL (≈ 1.38 µM)
MIC ([21]; BAA1705, K. pneumoniae (ATCC BAA 1705)): > 8 µg/mL
MIC [22]: 1 µg/mL (≈ 2.77 µM)
MIC [23]: 0.12 µg/mL (≈ 0.332 µM)
